From patent US8343966B2, “Organic compounds” (Novartis AG, priority 2008, dated 2013) come the findings set out here.

As usually defined, the IC50 is the concentration that gives 50% inhibition. The low end stands for inhibition by little substance, the high end for a need for much substance.

This assay deals with T1, human ALK5 (ALK5 T204D kinase domain) (Homo sapiens, UniProt P36897, T204D).
T1 construct: The kinase domain of human ALK5 (amino acids 200-503); made in house; host or cells: insect cells (baculovirus)
T1 sequence (P36897 200-503 T204D): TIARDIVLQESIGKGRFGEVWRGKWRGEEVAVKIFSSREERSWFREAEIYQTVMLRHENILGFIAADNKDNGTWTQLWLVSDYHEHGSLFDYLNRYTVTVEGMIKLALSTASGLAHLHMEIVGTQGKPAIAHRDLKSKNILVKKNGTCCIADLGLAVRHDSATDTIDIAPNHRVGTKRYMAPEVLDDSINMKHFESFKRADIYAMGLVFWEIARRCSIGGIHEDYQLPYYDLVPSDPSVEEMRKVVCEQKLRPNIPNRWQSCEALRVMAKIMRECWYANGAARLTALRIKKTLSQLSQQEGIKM
Put plainly: ALK5 kinase assay, [33P] phosphate incorporation into casein. The conditions noted are these: casein substrate, 1 μM unlabelled ATP. Type of assay: biochemical. How it is done:
The kinase activity of ALK5 is assessed by measuring radiolabelled phosphate [33P] incorporation in to the generic substrate, casein. The kinase domain of human ALK5 (amino acids 200-503) is fused to an N-terminal histidine tag. The kinase activity of ALK5 is rendered constitutive via point mutation at amino acid 204 (threonine to aspartate modification, ALK5 T204D) and the kinase construct is engineered to be expressed from a baculovirus expression construct in insect cells. The purified, recombinantly-expressed histidine-tagged ALK5 T204D protein is dissolved at 5.4 mg/ml in 50 mM Tris-HCl pH 8.0, 150 mM NaCl, 5 mM DTT. ALK5 T204D is dissolved to 2.5 μg/ml in assay buffer (Assay buffer: 20 mM Tris-HCl pH 7.4, 10 mM MgCl2, 2 mM MnCl2) on the day of use.
Test compounds and reference compounds are dissolved in assay buffer without DTT containing 5% (v/v) DMSO. Stock solutions of test and reference compounds are diluted in assay buffer with DTT (1.25 mM) containing 4.5% (v/v) DMSO. 10 μl of test or reference compound are added to the appropriate wells of 96 well U-bottomed plate. Total enzyme activity is determined by measuring ALK5 T204D activity in the absence of ALK5 kinase inhibitor reference compounds. Non-specific binding (NSB) is determined by measuring the activity of ALK5 T204D in the presence of ALK5 kinase inhibitor reference compounds. 10 μl of dephosphorylated casein stock solution (dephosphorylated casein is dissolved in ddH2O at 20 mg/ml) is added per well (200 μg/well final assay concentration). 20 μl of ALK5 T204D (2.5 μg/ml solution) is added per well (50 ng/well final assay concentration). The plates are left to incubate at room temperature for 10 minutes.
10 μl of ATP mix is added to the well to initiate the reaction (0.66 nM [^33P]ATP/1 μM unlabelled ATP/well final assay concentration). The ATP mix is prepared as follows, unlabelled ATP (3 mM) is dissolved in ddH2O and pH adjusted to 7.4. The stock concentration of [^33P]ATP is 10 μCi/μl. The appropriate volume of [^33P]ATP is added to unlabelled ATP solution such that the final assay concentration per well is 0.1 μCi. Following addition of the ATP mix, the plates are incubated at room temperature for 50 minutes. The kinase reaction is terminated by the addition of 50 μL Stop Buffer (20 mM Tris-HCl pH 7.4, 10 mM EDTA).
75 μl/well from the reaction plate is transferred to a Multiscreen-IP plate (MultiScreen-IP plates are prepared by added 50 μL of 70% (v/v) ethanol per well and incubated for 5 minutes at room temperature. The ethanol is removed by aspiration via a MultiScreen HTS Vacuum Manifold unit (Millipore, Cat no: MSVMHT500). The plates are washed twice by adding 200 μl/well ddH2O). The MultiScreen-IP plate is incubated at room temperature for 30 minutes to allowing binding of casein to the plate. The MultiScreen-IP plates are washed three times by adding 200 μl/well 100 mM phosphoric acid solution and the gasket is carefully removed from the back of the MultiScreen-IP plate and the plate dried in the oven for 30 minutes. The MultiScreen-IP plate is backsealed, 50 μL of Microscint™20 is added, then the plates are topsealed and radiolabelled casein detected and quantified on a TopCount™ plate-reader using the ^33P scintillation protocol.

Each structure is given as a SMILES string.

`[2H]C([2H])([2H])N1CCN(C(=O)c2ccc(-c3cncc(-c4cc(-c5ccccn5)nc(C(C)(C)O)c4)c3)cc2)CC1` [Example 2.83, {4-[6′-(1-Hydroxy-1-methyl-ethyl)-[2,2′;4′,3″]terpyridin-5″-yl]-phenyl}-(4-methyl-d3-piperazin-1-yl)-methanone] had an IC50 of 0.059 µM.

With `CNc1cc(-c2cncc(-c3ccc(CN4CCN(C(C)C)CC4)cc3)c2)cc(-c2ccccn2)n1` [Example 2.24, {5″-[4-(4-Isopropyl-piperazin-1-ylmethyl)-phenyl]-[2,2′;4′,3″]terpyridin-6′-yl}-methyl-amine], half-maximal inhibition (IC50) required 0.014 µM.

The compound `CC(C)(C)N1CCN(Cc2ccc(-c3cncc(-c4cc(NC5CC5)nc(-c5ccccn5)c4)c3)cc2)CC1` [Example 2.120, {5″-[4-(4-tert-Butyl-piperazin-1-ylmethyl)-phenyl]-[2,2′;4′,3″]terpyridin-6′-yl}-cyclopropyl-amine] gave an IC50 of 0.022 µM.

The compound `CNc1cc(-c2cncc(-c3ccnc(OC)c3)c2)cc(-c2ccccn2)n1` [Example 2.17, (2′″-Methoxy-[2,2′;4′,3″;5″,4′″]quaterpyridin-6′-yl)-methyl-amine] showed an IC50 of 0.236 µM.

In turn, `Cc1cc(CN2CCN(C(C)C)CC2)ccc1-c1cncc(-c2cc(-c3ccccn3)nc(C(C)(C)O)c2)c1` [Example 2.90, 2-{5″-[4-(4-Isopropyl-piperazin-1-ylmethyl)-2-methyl-phenyl]-[2,2′;4′,3″]terpyridin-6′-yl}-propan-2-ol] had an IC50 of 0.071 µM.

In turn, `C[C@@H]1CN(Cc2ccc(-c3cncc(-c4cc(-c5ccccn5)nc(C(C)(C)O)c4)c3)cc2)CCN1` [Example 2.91, 2-{5″-[4-((R)-3-Methyl-piperazin-1-ylmethyl)-phenyl]-[2,2′;4′,3″]terpyridin-6′-yl}-propan-2-ol] gave an IC50 of 0.032 µM.

As to `CNc1cc(-c2cncc(-c3cccc(N4CCCC4)c3)c2)cc(-c2ccccn2)n1` [Example 2.12, Methyl-[5″-(3-pyrrolidin-1-yl-phenyl)-[2,2′;4′,3″]terpyridin-6′-yl]-amine], the IC50 came out at 0.209 µM.

In the case of `c1ccc(-c2cc(-c3cccnc3)cc(NCCc3cccc4[nH]ccc34)n2)nc1` [Example 1.6, [2-(1H-Indol-4-yl)-ethyl]-[2,2′;4′,3″]terpyridin-6′-yl-amine], 0.029 µM corresponded to half-maximal inhibition (IC50).

The compound `Cc1ccc(-c2cc(-c3cncc(-c4ccc(CN5CCN(C(C)C)CC5)cc4)c3)cc(NC3CC3)n2)o1` [Example 2.125, Cyclopropyl-[5-[4-(4-isopropyl-piperazin-1-ylmethyl)-phenyl]-6′-(5-methyl-furan-2-yl)-[3,4′]bipyridinyl-2′-yl]-amine] registered an IC50 of 0.038 µM.

In turn, `Cn1cc(-c2cncc(-c3cc(-c4ccccn4)nc(C(C)(C)O)c3)c2)cn1` [Example 2.86, 2-[5″-(1-Methyl-1H-pyrazol-4-yl)-[2,2′;4′,3″]terpyridin-6′-yl]-propan-2-ol] registered an IC50 of 0.092 µM.

The compound `c1cncc(-c2cc(NCc3cccc4[nH]ccc34)nc(-c3ccco3)c2)c1` [Example 1.2, (6′-Furan-2-yl-[3,4′]bipyridinyl-2′-yl)-(1H-indol-4-ylmethyl)-amine] showed an IC50 of 0.019 µM.

Regarding `CNc1cc(-c2cncc(-c3ccc(C(=O)N4CCN(C)CC4)cc3)c2)cc(-c2ccccn2)n1` [Example 2.106, [4-(6′-Methyl-d3-amino-[2,2′;4′,3″]terpyridin-5″-yl)-phenyl]-(4-methyl-d3-piperazin-1-yl)-methanone], the IC50 came out at 0.009 µM.

For `CC(C)(O)c1cc(-c2cncc(-c3ccc(CN4CCN(C(C)(C)C)CC4)cc3)c2)cc(-c2ccccn2)n1` [Example 2.82, 2-{5″-[4-(4-tert-Butyl-piperazin-1-ylmethyl)-phenyl]-[2,2′;4′,3″]terpyridin-6′-yl}-propan-2-ol], it took 0.036 µM to reach half-maximal inhibition (IC50).

Turning to `CC(C)N1CCN(Cc2ccc(-c3cncc(-c4cc(N)nc(-c5ccccn5)c4)c3)cc2)CC1` [Example 2.72, 5″-[4-(4-Isopropyl-piperazin-1-ylmethyl)-phenyl]-[2,2′;4′,3″]terpyridin-6′-ylamine], the IC50 was 0.042 µM.

Compound `Cc1ccc(-c2cc(-c3cccnc3)cc(NCCc3c[nH]c4ccccc34)n2)o1` [Example 1.3, [2-(1H-Indol-3-yl)-ethyl]-[6′-(5-methyl-furan-2-yl)-[3,4′]bipyridinyl-2′-yl]-amine] displayed an IC50 of 0.023 µM.

As for `CC(C)N1CCN(Cc2ccc(-c3cncc(-c4cc(-c5ccccn5)nc(C(C)(C)C)c4)c3)cc2)CC1` [Example 2.95, 6′-tert-Butyl-5″-[4-(4-isopropyl-piperazin-1-ylmethyl)-phenyl]-[2,2′;4′,3″]terpyridine], the IC50 worked out at 0.209 µM.

The compound `CC(C)(C)N1CCN(Cc2ccc(-c3cncc(-c4cc(N)nc(-c5ccccn5)c4)c3)cc2)CC1` [Example 2.158, 5″-[4-(4-tert-Butyl-piperazin-1-ylmethyl)-phenyl]-[2,2′;4′,3″]terpyridin-6′-ylamine] returned an IC50 of 0.035 µM.

The compound `CNc1cc(-c2cncc(-c3ccc(CN4CCN(C)CC4)cc3)c2)cc(-c2ccccn2)n1` [Example 2.26, Methyl-{5″-[4-(4-methyl-piperazin-1-ylmethyl)-phenyl]-[2,2′;4′,3″]terpyridin-6′-yl}-amine] registered an IC50 of 0.012 µM.

Compound `CC(C)(O)c1cc(-c2cncc(-c3ccc(CN4CCNCC4)cc3)c2)cc(-c2ccccn2)n1` [Example 2.81, 2-[5″-(4-piperazin-1-ylmethyl-phenyl)-[2,2′;4′,3″]terpyridin-6′-yl]-propan-2-ol] displayed an IC50 of 0.028 µM.

`c1ccc(-c2cc(-c3cccnc3)cc(NCc3cccc4[nH]ccc34)n2)nc1` [Example 1.15, (1H-Indol-4-ylmethyl)-[2,2′;4′,3″]terpyridin-6′-yl-amine] had an IC50 of 0.19 µM.

Compound `[2H]C([2H])([2H])Nc1cc(-c2cncc(-c3cnn(C)c3)c2)cc(-c2ccccn2)n1` [Example 2.104, Methyl-d3-[5″-(1-methyl-1H-pyrazol-4-yl)-[2,2′;4′,3″]terpyridin-6′-yl]-amine] registered an IC50 of 0.013 µM.

As to `CC(C)N1CCN(Cc2ccc(-c3cncc(-c4cc(NC5CC5)nc(-c5ccccn5)c4)c3)cc2)CC1` [Example 2.31, Cyclopropyl-{5″-[4-(4-isopropyl-piperazin-1-ylmethyl)-phenyl]-[2,2′;4′,3″]terpyridin-6′-yl}-amine], it took 0.004 µM to reach half-maximal inhibition (IC50).

Compound `CNc1cc(-c2cncc(-c3ccc(C(=O)N4CCN(C)CC4)cc3)c2)cc(-c2ccccn2)n1` [Example 2.1, [4-(6′-Methylamino-[2,2′;4′,3″]terpyridin-5″-yl)-phenyl]-(4-methyl-piperazin-1-yl)-methanone] showed an IC50 of 0.017 µM.

For `O=C(c1ccc(-c2cncc(-c3cc(NC4CC4)nc(-c4ccccn4)c3)c2)cc1)N1CCNCC1` [Example 2.30, [4-(6′-Cyclopropylamino-[2,2′;4′,3″]terpyridin-5″-yl)-phenyl]-piperazin-1-yl-methanone], the IC50 worked out at 0.008 µM.

In the case of `[2H]C([2H])([2H])Nc1cc(-c2cncc(-c3ccc(CN4CCN(C(C)(C)C)CC4)cc3)c2)cc(-c2ccccn2)n1` [Example 2.107, {5″-[4-(4-tert-Butyl-piperazin-1-ylmethyl)-phenyl]-[2,2′;4′,3″]terpyridin-6′-yl}-methyl-d3-amine], it took 0.013 µM to reach half-maximal inhibition (IC50).
